Test results as given in US5672715A, “Herbicidal substituted 3-aryl-pyrazoles” (Monsanto Company, priority 1995, dated 1997).
Where two headings read alike, the source gives them in different places.

Key:
Type in all cases: in vivo
Barnyardgrass [1] = assay: pre-emergence herbicide test; details: Echinochloa crus-galli, pre-emergence, read-out: % plant inhibition
Procedure, shortened: (§1)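 Soil-applied pre-emergence screen: compound added to cover topsoil over sown seeds, pans held on greenhouse bench with subirrigation, % inhibition scored ~2 weeks later.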

Cocklebur = assay: pre-emergence herbicide test
Procedure, shortened: as §1

Corn = assay: pre-emergence herbicide test
Procedure, shortened: as §1

Morning Glory [2] = assay: pre-emergence herbicide test
Procedure, shortened: as §1

Rice = assay: pre-emergence herbicide test; details: Oryza sativa, read-out: % plant inhibition
Procedure, shortened: as §1

Soybean [3] = assay: pre-emergence herbicide test; details: Glycine max, pre-emergence, read-out: % plant inhibition
Procedure, shortened: as §1

Velvetleaf [4] = assay: pre-emergence herbicide test
Procedure, shortened: as §1

Yellow Foxtail [5] = assay: pre-emergence herbicide test; details: Setaria, read-out: % plant inhibition
Procedure, shortened: as §1

Yellow Nutsedge = assay: pre-emergence herbicide test; details: Cyperus, read-out: % plant inhibition
Procedure, shortened: as §1

Barnyardgrass [6] = assay: post-emergence herbicide test; details: Echinochloa crus-galli, post-emergence, read-out: % plant inhibition
Procedure, shortened: (§2)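 Greenhouse plants grown from seeds in topsoil were treated two to three weeks after sowing with a spray solution or suspension of test chemical with about 0.4% by volume emulsifier, applied at 1870 L/Ha and 170.3 kPa. Percent inhibition per species was the endpoint.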

Blackgrass = assay: post-emergence herbicide test; details: Alopecurus myosuroides, post-emergence, read-out: % plant inhibition; for inhibition at 7.95803 g/ha: 0.0071 lb/A; for inhibition at 40.0143 g/ha: 0.0357 lb/A; for inhibition at 1000.92 g/ha: 0.893 lb/A; for inhibition at 5043.82 g/ha: 4.5 lb/A
Procedure, shortened: as §2

Common Chickweed = assay: post-emergence herbicide test
Procedure, shortened: as §2

Morning Glory [7] = assay: post-emergence herbicide test
Procedure, shortened: as §2

Soybean [8] = assay: post-emergence herbicide test
Procedure, shortened: as §2

Velvetleaf [9] = assay: post-emergence herbicide test
Procedure, shortened: as §2

Yellow Foxtail [10] = assay: post-emergence herbicide test; details: Setaria, read-out: % plant inhibition
Procedure, shortened: as §2

For Cc1c(-c2cc(F)c([N+](=O)[O-])cc2F)nn(C)c1C(F)(F)F [Compound 35], the inhibition at 40.0143 g/ha (Barnyardgrass [1]; 0.0357 lb/A) was 0%, the inhibition at 200.072 g/ha (Barnyardgrass [1]; 0.1785 lb/A) was 0% and the inhibition at 5043.82 g/ha (Barnyardgrass [1]; 4.5 lb/A) was 95%. The “% plant inhibition” value (Cocklebur; 0.893 lb/A) was 35%, the inhibition at 40.0143 g/ha (Cocklebur; Xanthium strumarium, pre-emergence, 0.0357 lb/A, read-out: % plant inhibition) was 0% and the inhibition at 1000.92 g/ha (Cocklebur; Xanthium strumarium, pre-emergence, 0.893 lb/A, read-out: % plant inhibition) was 55%. The inhibition at 5043.82 g/ha (Cocklebur; Xanthium strumarium, pre-emergence, 4.5 lb/A, read-out: % plant inhibition) was 90%, the “% plant inhibition” value (Corn; 0.1785 lb/A) was 5% and the inhibition at 40.0143 g/ha (Corn; Zea mays, pre-emergence, 0.0357 lb/A, read-out: % plant inhibition) was 0%. For the same molecule, the inhibition at 5043.82 g/ha (Corn; Zea mays, pre-emergence, 4.5 lb/A, read-out: % plant inhibition) was 55%, the “% plant inhibition” value (Morning Glory [2]; 0.893 lb/A) was 80% and the inhibition at 40.0143 g/ha (Morning Glory [2]; Ipomoea, pre-emergence, 0.0357 lb/A, read-out: % plant inhibition) was 0%. The inhibition at 1000.92 g/ha (Morning Glory [2]; Ipomoea, pre-emergence, 0.893 lb/A, read-out: % plant inhibition) was 85%, the inhibition at 5043.82 g/ha (Morning Glory [2]; Ipomoea, pre-emergence, 4.5 lb/A, read-out: % plant inhibition) was 85% and the inhibition at 40.0143 g/ha (Rice; 0.0357 lb/A) was 0%. For the same molecule, the inhibition at 5043.82 g/ha (Rice; 4.5 lb/A) was 0%, the inhibition at 40.0143 g/ha (Soybean [3]; 0.0357 lb/A) was 0% and the inhibition at 200.072 g/ha (Soybean [3]; 0.1785 lb/A) was 0%. For the same molecule, the inhibition at 1000.92 g/ha (Soybean [3]; 0.893 lb/A) was 40%, the inhibition at 5043.82 g/ha (Soybean [3]; 4.5 lb/A) was 55% and the “% plant inhibition” value (Velvetleaf [4]; 0.893 lb/A) was 98%. The inhibition at 40.0143 g/ha (Velvetleaf [4]; Abutilon theophrasti, pre-emergence, 0.0357 lb/A, read-out: % plant inhibition) was 0%, the inhibition at 1000.92 g/ha (Velvetleaf [4]; Abutilon theophrasti, pre-emergence, 0.893 lb/A, read-out: % plant inhibition) was 100% and the inhibition at 5043.82 g/ha (Velvetleaf [4]; Abutilon theophrasti, pre-emergence, 4.5 lb/A, read-out: % plant inhibition) was 100%. The inhibition at 40.0143 g/ha (Yellow Foxtail [5]; 0.0357 lb/A) was 0%, the inhibition at 200.072 g/ha (Yellow Foxtail [5]; 0.1785 lb/A) was 0% and the inhibition at 1000.92 g/ha (Yellow Foxtail [5]; 0.893 lb/A) was 35%. It also gave an inhibition at 5043.82 g/ha (Yellow Foxtail [5]; 4.5 lb/A) of 80%, an inhibition at 40.0143 g/ha (Yellow Nutsedge; 0.0357 lb/A) of 0% and an inhibition at 200.072 g/ha (Yellow Nutsedge; 0.1785 lb/A) of 0%. For the same molecule, the inhibition at 5043.82 g/ha (Yellow Nutsedge; 4.5 lb/A) was 30%, the inhibition at 7.95803 g/ha (Barnyardgrass [6]; 0.0071 lb/A) was 0% and the inhibition at 40.0143 g/ha (Barnyardgrass [6]; 0.0357 lb/A) was 0%. It also gave an inhibition at 200.072 g/ha (Barnyardgrass [6]; 0.1785 lb/A) of 0%, an inhibition at 5043.82 g/ha (Barnyardgrass [6]; 4.5 lb/A) of 65% and an inhibition at 7.95803 g/ha (Blackgrass; Table 4a) of 0%. For the same molecule, the inhibition at 7.95803 g/ha (Blackgrass; Table 5a) was 0%, the inhibition at 40.0143 g/ha (Blackgrass; Table 4a) was 0% and the inhibition at 40.0143 g/ha (Blackgrass; Table 5a) was 0%. It also gave an inhibition (Blackgrass; 0.1725 lb/A, Table 4a) of 0%, an inhibition at 200.072 g/ha (Blackgrass; 0.1785 lb/A, Table 4a) of 0% and an inhibition at 1000.92 g/ha (Blackgrass; Table 4a) of 0%. For the same molecule, the inhibition at 1000.92 g/ha (Blackgrass; Table 5a) was 35%, the inhibition at 5043.82 g/ha (Blackgrass; Table 4a) was 0% and the inhibition at 5043.82 g/ha (Blackgrass; Table 5a) was 45%. For the same molecule, the “% plant inhibition” value (Common Chickweed; 0.893 lb/A) was 10%, the inhibition at 7.95803 g/ha (Common Chickweed; post-emergence, 0.0071 lb/A, read-out: % plant inhibition) was 0% and the inhibition at 40.0143 g/ha (Common Chickweed; post-emergence, 0.0357 lb/A, read-out: % plant inhibition) was 0%. The inhibition at 200.072 g/ha (Common Chickweed; post-emergence, 0.1785 lb/A, read-out: % plant inhibition) was 0%, the inhibition at 5043.82 g/ha (Common Chickweed; post-emergence, 4.5 lb/A, read-out: % plant inhibition) was 35% and the “% plant inhibition” value (Morning Glory [7]; 0.893 lb/A) was 100%. It also gave an inhibition at 7.95803 g/ha (Morning Glory [7]; Ipomoea, post-emergence, 0.0071 lb/A, read-out: % plant inhibition) of 0%, an inhibition at 40.0143 g/ha (Morning Glory [7]; Ipomoea, post-emergence, 0.0357 lb/A, read-out: % plant inhibition) of 0% and an inhibition (Morning Glory [7]; Ipomoea, post-emergence, 0.1725 lb/A, read-out: % plant inhibition) of 65%. For the same molecule, the inhibition at 200.072 g/ha (Morning Glory [7]; Ipomoea, post-emergence, 0.1785 lb/A, read-out: % plant inhibition) was 75%, the inhibition at 1000.92 g/ha (Morning Glory [7]; Ipomoea, post-emergence, 0.893 lb/A, read-out: % plant inhibition) was 85% and the inhibition at 5043.82 g/ha (Morning Glory [7]; Ipomoea, post-emergence, 4.5 lb/A, read-out: % plant inhibition) was 95%. For the same molecule, the “% plant inhibition” value (Soybean [8]; 0.893 lb/A) was 30%, the inhibition at 7.95803 g/ha (Soybean [8]; Glycine max, post-emergence, 0.0071 lb/A, read-out: % plant inhibition) was 0% and the inhibition at 40.0143 g/ha (Soybean [8]; Glycine max, post-emergence, 0.0357 lb/A, read-out: % plant inhibition) was 0%. It also gave an inhibition (Soybean [8]; Glycine max, post-emergence, 0.1725 lb/A, read-out: % plant inhibition) of 20%, an inhibition at 200.072 g/ha (Soybean [8]; Glycine max, post-emergence, 0.1785 lb/A, read-out: % plant inhibition) of 25% and an inhibition at 5043.82 g/ha (Soybean [8]; Glycine max, post-emergence, 4.5 lb/A, read-out: % plant inhibition) of 55%. The “% plant inhibition” value (Velvetleaf [9]; 0.893 lb/A) was 70%, the inhibition at 7.95803 g/ha (Velvetleaf [9]; Abutilon theophrasti, post-emergence, 0.0071 lb/A, read-out: % plant inhibition) was 0% and the inhibition at 40.0143 g/ha (Velvetleaf [9]; Abutilon theophrasti, post-emergence, 0.0357 lb/A, read-out: % plant inhibition) was 0%. For the same molecule, the inhibition at 200.072 g/ha (Velvetleaf [9]; Abutilon theophrasti, post-emergence, 0.1785 lb/A, read-out: % plant inhibition) was 45%, the inhibition at 1000.92 g/ha (Velvetleaf [9]; Abutilon theophrasti, post-emergence, 0.893 lb/A, read-out: % plant inhibition) was 75% and the inhibition at 5043.82 g/ha (Velvetleaf [9]; Abutilon theophrasti, post-emergence, 4.5 lb/A, read-out: % plant inhibition) was 100%. The inhibition at 7.95803 g/ha (Yellow Foxtail [10]; 0.0071 lb/A) was 0%, the inhibition at 40.0143 g/ha (Yellow Foxtail [10]; 0.0357 lb/A) was 0% and the inhibition at 200.072 g/ha (Yellow Foxtail [10]; 0.1785 lb/A) was 20%. For the same molecule, the inhibition at 5043.82 g/ha (Yellow Foxtail [10]; 4.5 lb/A) was 65%.
